Results from US11667636B2, “Modulators of Mas-related G-protein receptor X2 and related products and methods” (Escient Pharmaceuticals, Inc., priority 2020, dated 2023).

Molecular target: T1, human MRGPRX2 (Homo sapiens, UniProt Q96LB1)
T1 construct: expressed in transfected cells
T1 sequence (Q96LB1 1-330): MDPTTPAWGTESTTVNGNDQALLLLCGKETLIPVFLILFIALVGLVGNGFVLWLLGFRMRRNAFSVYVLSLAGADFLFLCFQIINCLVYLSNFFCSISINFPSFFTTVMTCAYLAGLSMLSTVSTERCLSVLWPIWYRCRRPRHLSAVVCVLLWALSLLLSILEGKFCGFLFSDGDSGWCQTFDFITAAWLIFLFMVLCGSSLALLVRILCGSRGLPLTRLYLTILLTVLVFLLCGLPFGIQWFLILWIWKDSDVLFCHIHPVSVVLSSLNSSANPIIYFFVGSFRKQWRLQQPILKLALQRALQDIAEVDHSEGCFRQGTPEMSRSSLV
Assay: MRGPRX2 Activity: IP-One HTRF antagonist assay in CHO cells stably expressing human MRGPRX2, versus Cortistatin-14
Type: cell-based
Details: versus 0.3 uM Cortistatin-14 agonist, IP-1 HTRF, read-out: MRGPR2 Antagonist Activity
Method: CHO cells stably transfected to express human MRGPRX2 were maintained in an incubator at 37° C. with 5% CO2 and grown in F12 (HAM) media with 10% fetal bovine serum (FBS), 1% Glutamax, 1% penicillin/streptomycin, 800 μg/mL Geneticin (G418), and 300 μg/mL Hygromycin B. Cells were plated in a 384-well assay plate at 20,000 cells per well in 12 μL of Opti-MEM and kept in an incubator overnight. On the day of the assay, compounds solubilized at 10 mM in DMSO were added as a 10-point curve (30 uM final top concentration with 1:3 serial dilutions) using a Tecan D300E digital dispenser. Agonists were diluted in assay buffer (final concentrations of 5.7 mM Tris-HCl, 43 mM NaCl, 50 mM LiCl, pH=8) and 2 μL of the agonist Cortistatin-14 (CPC Scientific, catalog CORT-002) are added to each well. Final concentrations of agonists were 0.3 μM Cortistatin-14. Final concentrations of DMSO were kept consistent across the plate. Plates were incubated in the dark for 1 hr at 37° C. and then for 1 hr at room temperature. IP-1 standards and HTRF detection reagents were added according to the IP-One-Gq Kit purchased from Cisbio (part number 62IPAPEJ) and incubated in the dark for 1 hr at room temperature. The plate was read on a Molecular Devices SpectraMax iD5 plate reader. The HTRF ratio was calculated from the raw data and graphed using GraphPad Prism to calculate an IC50 value for each compound.
The activity ranges are denoted as follows: “+++++” denotes antagonist activity <50 nM; “++++” denotes antagonist activity between 51 and 100 nM; “+++” denotes activity between 101 and 500 nM; “++” denotes activity between 501 and 1000 nM; and “+” denotes activity >1000 nM

| Structure (SMILES) | IC50 |
| --- | --- |
| CCOCc1cc2c(N[C@H]3CCC[C@@H](NC(=O)c4ccc(OC)cc4)C3)cccc2s1 [1-3] | > 1000 nM |
| COc1ccc(C(=O)N[C@@H]2CCC[C@H](Nc3cccc4sc(C(C)=O)cc34)C2)cc1 [1-4] | > 1000 nM |
| CC(=O)c1cc2c(N[C@H]3CC[C@@H](NC(=O)c4ccc(F)cc4)CC3)cccc2s1 [1-5] | 101 to 500 nM |
| O=C(N[C@H]1CC[C@@H](Nc2cccc3sc(C(F)F)cc23)CC1)c1ccc(F)cc1 [1-13] | 51 to 100 nM |
| COc1ccc(C(=O)N[C@@H]2CCC[C@H](Nc3cccc4sc(OC)cc34)C2)cc1 [1-14] | > 1000 nM |
| COc1ccc(C(=O)N[C@@H]2CCC[C@H](Nc3cccc4sc(C#N)cc34)C2)cc1 [1-16] | 101 to 500 nM |
| COc1ccc(C(=O)N[C@H]2CC[C@@H](Nc3cccc4sc(C(F)(F)F)nc34)CC2)cc1 [1-17] | > 1000 nM |
| O=C(N[C@H]1CC[C@@H](Nc2cccc3nc(C(F)(F)F)sc23)CC1)c1ccc(F)cc1 [1-19] | 51 to 100 nM |
| N#Cc1cc2c(N[C@H]3CC[C@@H](NC(=O)c4ccc(F)cc4)CC3)cccc2s1 [1-20] | 51 to 100 nM |
| COc1ccc(C(=O)N[C@H]2CC[C@@H](Nc3cccc4nn(C(F)(F)F)cc34)CC2)cc1 [1-21] | 51 to 100 nM |
| COc1ccc(C(=O)N[C@H]2CC[C@@H](Nc3cccc4nc(C(F)(F)F)sc34)CC2)cc1 [1-22] | 51 to 100 nM |
| COc1ccc(C(=O)N[C@H]2CC[C@@H](Nc3cc(C)cc4nc(C(F)(F)F)cn34)CC2)cc1 [1-23] | 101 to 500 nM |
| COc1ccc(C(=O)N[C@@H]2CCC[C@H](Nc3cc(Cl)cc4nc(C(F)(F)F)cn34)C2)cc1 [1-30] | 51 to 100 nM |
| COc1ccc(C(=O)N[C@@H]2CCC[C@H](Nc3cc(F)cc4nc(C(F)(F)F)cn34)C2)cc1 [1-31] | 51 to 100 nM |

The remaining lines, values ahead:

| IC50 | Structure (SMILES) |
| --- | --- |
| 51 to 100 nM | O=C(N[C@H]1CC[C@@H](Nc2cccc3sc(C(F)(F)F)cc23)CC1)c1cc2ccccn2n1 [2-1] |
| > 1000 nM | CC(=O)Nc1cccc(C(=O)N[C@H]2CC[C@@H](Nc3cccc4sc(C(F)(F)F)cc34)CC2)c1 [2-2] |
| 101 to 500 nM | CCn1nccc1C(=O)N[C@H]1CC[C@@H](Nc2cccc3sc(C(F)(F)F)cc23)CC1 [2-3] |
| 101 to 500 nM | CC(C#N)c1cccc(C(=O)N[C@H]2CC[C@@H](Nc3cccc4sc(C(F)(F)F)cc34)CC2)c1 (some centres unmarked) [2-5] |
| < 50 nM | O=C(N[C@H]1CC[C@@H](Nc2cccc3nc(C(F)(F)F)cn23)CC1)c1ccc(N2CCOCC2)cc1 [2-8] |
| 101 to 500 nM | O=C(N[C@H]1CC[C@@H](Nc2cccc3nc(C(F)(F)F)cn23)CC1)c1n[nH]c2ccccc12 [2-9] |
| 101 to 500 nM | O=C(N[C@H]1CC[C@@H](Nc2cccc3nc(C(F)(F)F)cn23)CC1)c1cnc[nH]1 [2-11] |
| 51 to 100 nM | CN(CC(F)F)c1cccc(C(=O)N[C@H]2CC[C@@H](Nc3cccc4nc(C(F)(F)F)cn34)CC2)c1 [2-14] |
| 101 to 500 nM | CCOc1cc(C(=O)N[C@H]2CC[C@@H](Nc3cccc4nc(C(F)(F)F)cn34)CC2)ccn1 [2-15] |
| < 50 nM | O=C(N[C@H]1CC[C@@H](Nc2cccc3nc(C(F)(F)F)cn23)CC1)c1ccc(NCC(F)(F)F)cc1 [2-23] |
| 101 to 500 nM | COc1ccc(C(=O)N[C@H]2CC[C@@H](Nc3cccc4nc(C(F)F)cn34)CC2)c(F)c1 [2-27] |
| < 50 nM | O=C(N[C@H]1CC[C@@H](Nc2cccc3nc(C(F)(F)F)cn23)CC1)c1cc2cc(F)cnc2[nH]1 [2-120] |
| 101 to 500 nM | O=C(N[C@H]1CC[C@@H](Nc2cccc3nc(C(F)(F)F)cn23)CC1)c1cnc2nccn2c1 [2-125] |
| < 50 nM | O=C(N[C@H]1CC[C@@H](Nc2cccc3nc(C(F)(F)F)cn23)CC1)c1ccnc2cn[nH]c12 [2-126] |
| 101 to 500 nM | Cc1ncc(C(=O)N[C@H]2CC[C@@H](Nc3cccc4nc(C(F)(F)F)cn34)CC2)n1C [2-134] |
| < 50 nM | O=C(N[C@H]1CC[C@@H](Nc2cccc3nc(C(F)(F)F)cn23)CC1)c1ccn(CC(F)F)n1 [2-135] |
| < 50 nM | Cc1n[nH]cc1C(=O)N[C@H]1CC[C@@H](Nc2cccc3nc(C(F)(F)F)cn23)CC1 [2-138] |
| < 50 nM | O=C(N[C@H]1CC[C@@H](Nc2cccc3nc(C(F)(F)F)cn23)CC1)c1c[nH]nc1C1CC1 [2-141] |
